Test system: patients with negative symptoms of schizophrenia
Assay: Study #2 (MIN-101C07) Phase 3: PANSS-derived scores (NSFS, total, subscales, Marder factors)
Assay type: in vivo, human
Design: key to Change from Baseline LS Mean: NSFS (ITT) / Change from Baseline LS Mean: NSFS (mITT): NSFS total ranges 7 to 49; higher = more severe
Details: for Change from Baseline LS Mean: Marder's Anxiety/Depression Factor Score / Change from Baseline LS Mean: Marder's Disorganized Thought Factor Score / Change from Baseline LS Mean: Marder's Positive Symptoms Factor Score / Change from Baseline LS Mean: Marder's Uncontrolled Hostility/Excitement Factor Score / Change from Baseline LS Mean: NSFS (ITT) / Change from Baseline LS Mean: NSFS Emotional Experience Score / Change from Baseline LS Mean: NSFS Emotional Expression Score / Change from Baseline LS Mean: PANSS General Psychopathology Subscale / Change from Baseline LS Mean: PANSS Negative Symptoms Subscale / Change from Baseline LS Mean: PANSS Positive Symptoms Subscale / Change from Baseline LS Mean: PANSS Total Score / Effect Size (Cohen's d) vs Placebo: Marder's Anxiety/Depression Factor Score / Effect Size (Cohen's d) vs Placebo: Marder's Disorganized Thought Factor Score / Effect Size (Cohen's d) vs Placebo: Marder's Positive Symptoms Factor Score / Effect Size (Cohen's d) vs Placebo: Marder's Uncontrolled Hostility/Excitement Factor Score / Effect Size (Cohen's d) vs Placebo: NSFS (ITT) / Effect Size (Cohen's d) vs Placebo: NSFS Emotional Experience Score / Effect Size (Cohen's d) vs Placebo: NSFS Emotional Expression Score / Effect Size (Cohen's d) vs Placebo: PANSS General Psychopathology Subscale / Effect Size (Cohen's d) vs Placebo: PANSS Negative Symptoms Subscale / Effect Size (Cohen's d) vs Placebo: PANSS Positive Symptoms Subscale / Effect Size (Cohen's d) vs Placebo: PANSS Total Score / Effect size, change from Baseline in NSFS to Week 12: ITT; for Effect size, change from Baseline in NSFS to Week 12: 64 mg
Text: “PANSS”, as used herein, refers to the positive and negative syndrome scale, which is used by physicians and clinicians to measure the severity of the symptoms in a schizophrenia patient. The scale is divided into three parts, a positive scale, which provides a “PANSS positive subscore”, a negative scale, which provides a “PANSS negative subscore”, and general psychopathology scale. The sum of these three parts provides a PANSS total score, which ranges from 30 to 210 (where higher scores indicate more severe symptoms). (Kay, S. R., et al. “The positive and negative syndrome scale (PANSS) for schizophrenia,” Schizophr Bulletin, 13(2), 261-276 (1987)).
As used herein, PANSS Marder's negative symptoms factor score (“NSFS”), refers to selection of seven of the PANSS items used by physicians and clinicians to measure the severity of the negative symptoms in a schizophrenia patient. (See Tables 5A and 5B.) The NSFS total score ranges from 7 to 49. (Marder, S. R. et al. “The effects of risperidone on the five dimensions of schizophrenia derived by factor analysis: combined results of the North American trials,” J Clin Psychiatry. 1997; 58:538-46.)
The PANSS was designed to be used in patients with schizophrenia to measure the overall severity of schizophrenic symptoms. The scale has been validated in different cultures and languages and is reliable and acceptable to regulatory health authorities as a primary scale to determine efficacy of intervention in schizophrenia. The name refers to the 2 types of symptoms in schizophrenia, as defined by the American Psychiatric Association: positive symptoms, which refer to an excess or distortion of normal functions (e.g., hallucinations and delusions), and negative symptoms, which represent a diminution or loss of normal functions.
The patient is rated from 1 to 7 on 30 different symptoms based on the interview as well as reports of family members or primary care hospital workers. The original PANSS included 3 groups of symptoms and subscale scores Positive, Negative, and General Psychopathology. Since the inception of PANSS, investigators have proposed additional grouping (structures) of PANSS such as the Marder structure (Marder, S. R. et al. “Issues and perspectives in designing clinical trials for negative symptoms in schizophrenia: consensus statements,” Schizophrenia Bulletin Open. 2020; 1(1). doi:10.1093/schizbullopen/sgz001) and the White structure (White, L. et al. “Empirical assessment of the factorial structure of clinical symptoms in schizophrenia”. Psychopathology. 1997; 30263-274).
The PANSS was assessed at the time points described in Table 4.
The PANSS-derived endpoints used in these studies and the integrated analyses are described in Table 5A and a summary of the individual PANSS items used by physicians and clinicians to measure the severity of the symptoms in a schizophrenia patient is provided in Table 5B. The scale is divided into three parts, a positive scale, which provides a “PANSS positive subscore”, a negative scale, which provides a “PANSS negative subscore”, and general psychopathology scale. The sum of these three parts provides a PANSS total score, which ranges from 30 to 210 (where higher scores indicate more severe symptoms). (See Kay, S. R., et al. “The positive and negative syndrome scale (PANSS) for schizophrenia,” Schizophr Bulletin, 13(2), 261-276 (1987) and Gopal, S., et al. “Improvement of Negative Symptoms in Schizophrenia with Paliperidone Palmitate 1-Month and 3-Month Long-Acting Injectables: Results from a Phase 3 Non-Inferiority Study” Neuropsychiatric Disease and Treatment, 681-690, DOI: 10.2147/NDT.5226296, both of which are incorporated by reference.)
Study #2 (also referred to as “MIN101C07”) was a Phase 3, randomized, DB, placebo-controlled, parallel-group 12-week study to evaluate the efficacy and safety of Roluperidone in patients ≥18 years to ≤55 years with negative symptoms of schizophrenia, followed by a 40-week OL extension. […]

Substance: 1H-Isoindol-1-one,2-[ [1-[2-(4-fluorophenyl)-2-oxoethyl]-4-piperidinyl]methyl]-2,3-dihydro-, hydrochloride, hydrate (1:1:2) [Roluperidone]
- Effect Size (Cohen's w) vs Placebo: 20% reduction in NSFS responders (32 mg QD, Week 12 DB): 0.05
- Effect Size (Cohen's w) vs Placebo: 30% reduction in NSFS responders (32 mg QD, Week 12 DB): 0.04
- Number of Patients with 20% reduction in NSFS at Week 12 (32 mg QD, Week 12 DB): 32/116
- Number of Patients with 30% reduction in NSFS at Week 12 (32 mg QD, Week 12 DB): 14/116
- Patients with 20% reduction in NSFS at Week 12 (%) (32 mg QD, Week 12 DB): (28%)
- Patients with 30% reduction in NSFS at Week 12 (%) (32 mg QD, Week 12 DB): (12%)
- Change from Baseline LS Mean: Marder's Anxiety/Depression Factor Score (32 mg QD, Week 12 DB): −0.6
- Change from Baseline LS Mean: Marder's Disorganized Thought Factor Score (32 mg QD, Week 12 DB): −1.6
- Change from Baseline LS Mean: Marder's Positive Symptoms Factor Score (32 mg QD, Week 12 DB): −1.3
- Change from Baseline LS Mean: Marder's Uncontrolled Hostility/Excitement Factor Score (32 mg QD, Week 12 DB): 0.3
- Change from Baseline LS Mean: NSFS (ITT) (32 mg QD, Week 12 DB): −4.0
- Change from Baseline LS Mean: NSFS Emotional Experience Score (32 mg QD, Week 12 DB): −1.5
- Change from Baseline LS Mean: NSFS Emotional Expression Score (32 mg QD, Week 12 DB): −2.6
- Change from Baseline LS Mean: PANSS General Psychopathology Subscale (32 mg QD, Week 12 DB): −2.8
- Change from Baseline LS Mean: PANSS Negative Symptoms Subscale (32 mg QD, Week 12 DB): −4.2
- Change from Baseline LS Mean: PANSS Positive Symptoms Subscale (32 mg QD, Week 12 DB): −0.3
- Change from Baseline LS Mean: PANSS Total Score (32 mg QD, Week 12 DB): −7.1
- Effect Size (Cohen's d) vs Placebo: Marder's Anxiety/Depression Factor Score (32 mg QD, Week 12 DB): 0.05
- Effect Size (Cohen's d) vs Placebo: Marder's Disorganized Thought Factor Score (32 mg QD, Week 12 DB): 0.15
- Effect Size (Cohen's d) vs Placebo: Marder's Positive Symptoms Factor Score (32 mg QD, Week 12 DB): 0.14
- Effect Size (Cohen's d) vs Placebo: Marder's Uncontrolled Hostility/Excitement Factor Score (32 mg QD, Week 12 DB): −0.05
- Effect Size (Cohen's d) vs Placebo: NSFS (ITT) (32 mg QD, Week 12 DB): 0.13
- Effect Size (Cohen's d) vs Placebo: NSFS Emotional Experience Score (32 mg QD, Week 12 DB): 0.11
- Effect Size (Cohen's d) vs Placebo: NSFS Emotional Expression Score (32 mg QD, Week 12 DB): 0.17
- Effect Size (Cohen's d) vs Placebo: PANSS General Psychopathology Subscale (32 mg QD, Week 12 DB): 0.22
- Effect Size (Cohen's d) vs Placebo: PANSS Negative Symptoms Subscale (32 mg QD, Week 12 DB): 0.10
- Effect Size (Cohen's d) vs Placebo: PANSS Positive Symptoms Subscale (32 mg QD, Week 12 DB): 0.04
- Effect Size (Cohen's d) vs Placebo: PANSS Total Score (32 mg QD, Week 12 DB): 0.17
- Change from Baseline LS Mean: NSFS (mITT) (32 mg QD, Week 12 DB): −4.0
- Effect Size (Cohen's d) vs Placebo: NSFS (mITT) (32 mg QD, Week 12 DB): 0.13
- Effect Size (Cohen's w) vs Placebo: 20% reduction in NSFS responders (64 mg QD, Week 12 DB): 0.17
- Effect Size (Cohen's w) vs Placebo: 30% reduction in NSFS responders (64 mg QD, Week 12 DB): 0.09
- Number of Patients with 20% reduction in NSFS at Week 12 (64 mg QD, Week 12 DB): 48/122
- Number of Patients with 30% reduction in NSFS at Week 12 (64 mg QD, Week 12 DB): 24/122
- Change from Baseline LS Mean: Marder's Anxiety/Depression Factor Score (64 mg QD, Week 12 DB): −0.7
- Change from Baseline LS Mean: Marder's Disorganized Thought Factor Score (64 mg QD, Week 12 DB): −1.4
- Change from Baseline LS Mean: Marder's Positive Symptoms Factor Score (64 mg QD, Week 12 DB): −1.6
- Change from Baseline LS Mean: Marder's Uncontrolled Hostility/Excitement Factor Score (64 mg QD, Week 12 DB): 0.5
- Change from Baseline LS Mean: NSFS (ITT) (64 mg QD, Week 12 DB): −4.3
- Change from Baseline LS Mean: NSFS Emotional Experience Score (64 mg QD, Week 12 DB): −1.8
- Change from Baseline LS Mean: NSFS Emotional Expression Score (64 mg QD, Week 12 DB): −2.6
- Change from Baseline LS Mean: PANSS General Psychopathology Subscale (64 mg QD, Week 12 DB): −2.3
- Change from Baseline LS Mean: PANSS Negative Symptoms Subscale (64 mg QD, Week 12 DB): −4.7
- Change from Baseline LS Mean: PANSS Positive Symptoms Subscale (64 mg QD, Week 12 DB): −0.4
- Change from Baseline LS Mean: PANSS Total Score (64 mg QD, Week 12 DB): −7.4
- Effect Size (Cohen's d) vs Placebo: Marder's Anxiety/Depression Factor Score (64 mg QD, Week 12 DB): 0.09
- Effect Size (Cohen's d) vs Placebo: Marder's Disorganized Thought Factor Score (64 mg QD, Week 12 DB): 0.07
- Effect Size (Cohen's d) vs Placebo: Marder's Positive Symptoms Factor Score (64 mg QD, Week 12 DB): 0.24
- Effect Size (Cohen's d) vs Placebo: Marder's Uncontrolled Hostility/Excitement Factor Score (64 mg QD, Week 12 DB): −0.15
- Effect Size (Cohen's d) vs Placebo: NSFS (ITT) (64 mg QD, Week 12 DB): 0.21
- Effect Size (Cohen's d) vs Placebo: NSFS Emotional Experience Score (64 mg QD, Week 12 DB): 0.28
- Effect Size (Cohen's d) vs Placebo: NSFS Emotional Expression Score (64 mg QD, Week 12 DB): 0.17
- Effect Size (Cohen's d) vs Placebo: PANSS General Psychopathology Subscale (64 mg QD, Week 12 DB): 0.12
- Effect Size (Cohen's d) vs Placebo: PANSS Negative Symptoms Subscale (64 mg QD, Week 12 DB): 0.23
- Effect Size (Cohen's d) vs Placebo: PANSS Positive Symptoms Subscale (64 mg QD, Week 12 DB): 0.07
- Effect Size (Cohen's d) vs Placebo: PANSS Total Score (64 mg QD, Week 12 DB): 0.20
- Change from Baseline LS Mean: NSFS (mITT) (64 mg QD, Week 12 DB): −4.5
- Effect Size (Cohen's d) vs Placebo: NSFS (mITT) (64 mg QD, Week 12 DB): 0.26
- Effect size, change from Baseline in NSFS to Week 12 (US sites subgroup): 0.32
- Effect size, change from Baseline in NSFS to Week 12 (non-US sites subgroup): 0.20
- NSFS score, course in OL period (all treatment groups, OL period to Week 52): continued to improve

— US20230255953A1, “USE OF ROLUPERIDONE IN PREVENTING RELAPSE IN SCHIZOPHRENIA PATIENTS” (Minerva Neurosciences, Inc., priority 2022, published 2023)
